Test results taken from patent US20250171462A1 (NICO Therapeutics, Inc., priority 2022, published 2025).
Read-outs that look alike come from different tables or passages of the source.

Target: T1, full-length SARM1 (FL-SARM1) (Homo sapiens, UniProt Q6SZW1)
T1 sequence (Q6SZW1 28-724): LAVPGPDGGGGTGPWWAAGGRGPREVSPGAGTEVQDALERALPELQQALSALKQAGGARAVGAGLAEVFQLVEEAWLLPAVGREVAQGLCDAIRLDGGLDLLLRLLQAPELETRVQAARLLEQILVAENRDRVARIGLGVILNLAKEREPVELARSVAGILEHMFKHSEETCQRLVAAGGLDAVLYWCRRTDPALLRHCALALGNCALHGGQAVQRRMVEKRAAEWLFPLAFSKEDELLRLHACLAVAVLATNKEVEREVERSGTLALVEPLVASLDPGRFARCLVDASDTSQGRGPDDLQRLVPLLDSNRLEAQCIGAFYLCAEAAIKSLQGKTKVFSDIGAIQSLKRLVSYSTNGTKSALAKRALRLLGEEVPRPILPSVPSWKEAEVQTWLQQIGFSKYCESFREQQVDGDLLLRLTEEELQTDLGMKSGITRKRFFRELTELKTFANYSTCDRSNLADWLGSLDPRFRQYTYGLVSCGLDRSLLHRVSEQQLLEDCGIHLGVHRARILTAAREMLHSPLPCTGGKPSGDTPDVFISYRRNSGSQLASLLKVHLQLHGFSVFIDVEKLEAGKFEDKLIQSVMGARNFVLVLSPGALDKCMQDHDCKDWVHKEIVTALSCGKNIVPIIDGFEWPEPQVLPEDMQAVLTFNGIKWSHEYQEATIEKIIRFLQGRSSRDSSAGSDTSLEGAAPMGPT
Assay: FL-SARM1 cellular lysate assay (NAD/NADH-Glo detection of remaining NAD+, NMN-activated)

[1] = Activity (IC50 class), 11 point curve
[2] = Activity (μM) (IC50), 11 point curve
[3] = read-out: Activity (IC50 class), 11 point curve

Description: Preparation of full-length SARM1 (FL-SARM1) lysate: HEK293T cells (ATCC: CRL-3216) were grown on 150 mm TC-treated dishes to 80-90% confluency in complete DMEM (DMEM (Thermo Fisher: 11965175) supplemented with 10% HI—FBS (VWR: 10802-772), 1× Pen/Strep (Thermo Fisher: 15140122), 1×NEAA (Thermo Fisher: 1140050), 1× glutamax (Thermo Fisher: 35050061), and 1 mM sodium pyruvate (Thermo Fisher: 11360070)) at 37° C. and 5% CO2. One hour prior to transfection, the media was replaced with fresh, 37° C. complete DMEM (20 mL per one 150 mm dish) supplemented with additional 10 mM glucose (Alfa Aesar AAJ60067EQE). Per one 150 mm dish, 30 μg FL-SARM1 (SEQ. ID. 1; cloned in-house) plasmid was dissolved in 1 mL DMEM at ambient temperature and were mixed by inverting the tube 8-10 times. 90 μL of GenJet™ in vitro DNA transfection reagent (Ver2) was dissolved in 1 mL DMEM at ambient temperature and were mixed by inverting the tube 8-10 times. The plasmid and transfection agent solutions were combined, mixed by 8-10 inversions and incubated for 10 minutes at ambient temperature. 2 mL of this transfection mixture was added to each dish containing HEK293T cells as prepared above followed by a gentle mixing of 4-5 horizontal rotations. The dishes were incubated at 37° C. and 5% CO2 for 24 h. The dishes were removed from the incubator, the medium was aspirated and the cells were scraped off using cell scrapers in ice-cold 1×PBS (5 mL/dish, Thermo Fisher Scientific 10010023). The collected cells were centrifuged at 300 g for 5 minutes at 4° C. The supernatant was aspirated and the pellet was frozen at −80° C. until needed. The cell pellet from 30 dishes was dissolved in 30 mL 1×PBS supplemented with 4 tablets of Complete, Mini EDTA-free protease inhibitor cocktail at 4° C. This mixture was sonicated on ice for 10 minutes at 50% amplitude with a 1 second on/1 second off interval using a Model 120 sonicator (Thermo Fisher Scientific, FB120110). The lysate was centrifuged at 16000 g for 10 minutes at 4° C.
To a white 384-well Proxiplate (PerkinElmer, PE-6008280) was added 50 nL/well of a DMSO solution containing test compounds followed by 7.5 μL/well of a 0.067 mg/mL solution of SARMi cellular lysate in reaction buffer (DPBS containing CHAPSO (0.1%) and fatty acid free BSA (0.032%)). The plate was centrifuged for 1 minute at 1000 RPM and then placed in an incubator at 23° C. for 15 minutes. To the wells were added 2.5 μL/well of a solution containing 40 M NAD^+ and 4 mM nicotinamide mononucleotide (NMN) in reaction buffer. The plate was centrifuged for 1 min at 1000 RPM, the plate was sealed and placed in an incubator at 23° C. for 3.5 hours before adding 3.5 μL/well of NAD/NADH-Glo™ solution (preparation as described by Promega using the extended detection protocol). The plate was centrifuged for 1 minute at 1000 RPM and then incubated at 23° C. for 20 minutes. 1 μL/well of a 3.625 mM solution of menadione in DMSO was added and the plate was centrifuged for 1 minute at 1000 RPM. Relative light units (RLU) were recorded using an Envision plate reader at a height of 6.5 mm.
IC50 values were calculated from an 11 point curve using ½ log dilutions using a four-parameter logistic regression curve fit.

`Cc1ccc(NC(=O)[C@@H]2CO[C@H](C(F)(F)F)CN2c2ccccn2)cc1-c1ncc(F)cn1` (racemic) [Example 272, cis-N-(3-(5-fluoropyrimidin-2-yl)-4-methylphenyl)-4-(pyridin-2-yl)-6-(trifluoromethyl) morpholine-3-carboxamide] gave an IC50 [1] of 1 to 10 µM and an IC50 [2] of 1.1 µM.
In the case of `Cc1ccc(NC(=O)N2[C@@H]3C[C@@H](C)C[C@H]2C3)cc1-c1nccnc1C(F)(F)F` [Example 229, cis-3-methyl-N-[4-methyl-3-[3-(trifluoromethyl)pyrazin-2-yl]phenyl]-6-azabicyclo[3.1.1]heptane-6-carboxamide], the IC50 [2] is reported as 0.2 µM and the IC50 [3] is reported as 0.0001 to 1 µM.
`CCOC(C)[C@@]12CC(C[C@@H](C)C1)N2C(=O)Nc1ccc(C)c(-c2ncc(F)cn2)c1` (single isomer, unassigned) [Example 186] was tested, and the IC50 [2] was 0.2 µM and the IC50 [3] was 0.0001 to 1 µM.
`Cc1ccc(NC(=O)[C@@H]2CC2(F)F)cc1-c1ccccn1` [Example 142, (1S)-2,2-difluoro-N-(4-methyl-3-pyridin-2-ylphenyl)cyclopropane-1-carboxamide] was tested, and the IC50 [1] was 1 to 10 µM and the IC50 [2] was 2.6 µM.
For `Cc1ccc(NC(=O)N2C3CCCC2C3)cc1-c1cccnn1` [Example 54, N-(4-methyl-3-(pyridazin-3-yl)phenyl)-6-azabicyclo[3.1.1]heptane-6-carboxamide], the IC50 [2] was 0.5 µM and the IC50 [3] was 0.0001 to 1 µM.
Work on `Cc1ccc(NC(=O)[C@H]2[C@@H]3CC[C@@H](C3)N2c2ncccn2)cc1-c1ncc(F)cn1` [Example 322] yielded an IC50 [1] greater than 10 µM and an IC50 [2] of 13 µM.
In the case of `Cc1ccc(NC(=O)N2C3C[C@@H](C)C[C@H]2C3)cc1-c1cncc(F)n1` [Example 231, cis-N-[3-(6-fluoropyrazin-2-yl)-4-methylphenyl]-3-methyl-6-azabicyclo[3.1.1]heptane-6-carboxamide], the IC50 [2] is reported as 0.08 µM and the IC50 [3] is reported as 0.0001 to 1 µM.
`Cc1ccc(NC(=O)C(C)C2CCC2)cc1-c1cccnn1` (racemic) [Example 297, 2-cyclobutyl-N-(4-methyl-3-pyridazin-3-ylphenyl)propanamide] gave an IC50 [1] of 1 to 10 µM and an IC50 [2] of 6.5 µM.
In the case of `Cc1c(C#N)cc(NC(=O)N2C3CCCC2C3)cc1-c1ccccn1` [Example 83, N-(3-cyano-4-methyl-5-pyridin-2-ylphenyl)-6-azabicyclo[3.1.1]heptane-6-carboxamide], the IC50 [1] is reported as greater than 10 µM and the IC50 [2] is reported as 35 µM.
`Cc1ccc(NC(=O)[C@H]2C[C@H]3C[C@H]3N2c2cnccn2)cc1-c1ncc(F)cn1` [Example 264, (1R,3R,5R)-N-[3-(5-fluoropyrimidin-2-yl)-4-methylphenyl]-2-pyrazin-2-yl-2-azabicyclo[3.1.0]hexane-3-carboxamide] showed an IC50 [1] of 1 to 10 µM and an IC50 [2] of 1.1 µM.
`Cc1ccc(NC(=O)N2C3CCCCC2C3)cc1-c1ccccn1` [Example 23, N-(4-methyl-3-(pyridin-2-yl)phenyl)-7-azabicyclo[4.1.1]octane-7-carboxamide] showed an IC50 [2] of 0.04 µM and an IC50 [3] of 0.0001 to 1 µM.
`Cc1cc(F)c(NC(=O)N2C3CCCC2C3)cc1-c1ncncn1` [Example 181, N-(2-fluoro-4-methyl-5-(1,3,5-triazin-2-yl)phenyl)-6-azabicyclo[3.1.1]heptane-6-carboxamide] gave an IC50 [1] of 1 to 10 µM and an IC50 [2] of 7 µM.
`Cc1ccc(NC(=O)[C@H]2[C@H](C)C2(F)F)cc1-c1ccccn1` (racemic) [Example 135, trans-2,2-difluoro-3-methyl-N-(4-methyl-3-pyridin-2-ylphenyl)cyclopropane-1-carboxamide] gave an IC50 [1] of 1 to 10 µM and an IC50 [2] of 3.3 µM.
For `Cc1ccc(NC(=O)[C@@H]2C[C@H]3C[C@H]32)cc1-c1ccccn1` (racemic) [Example 116, trans-N-(4-methyl-3-pyridin-2-ylphenyl)bicyclo[2.1.0]pentane-2-carboxamide], the IC50 [1] was 1 to 10 µM and the IC50 [2] was 7.4 µM.
In the case of `Cc1ccc(NC(=O)[C@H]2C[C@H]3C[C@H]3N2Cc2ncccn2)cc1-c1ncc(F)cn1` [Example 261], the IC50 [1] is reported as greater than 10 µM and the IC50 [2] is reported as 34 µM.
Work on `COC(C)[C@@]12CC(C[C@@H](C)C1)N2C(=O)Nc1ccc(C(F)(F)F)c(-c2nccnn2)c1` (single isomer, unassigned) [Example 212, cis-N-(3-(1,2,4-triazin-3-yl)-4-(trifluoromethyl)phenyl)-1-(1-methoxyethyl)-3-methyl-6-azabicyclo[3.1.1]heptane-6-carboxamide] yielded an IC50 [1] of 1 to 10 µM and an IC50 [2] of 9.6 µM.
Work on `Cc1ccc(NC(=O)[C@@H]2C[C@H]3CC[C@@H]2N3c2ccccn2)cc1-c1ncc(F)cn1` (racemic) [Example 275, cis-N-(3-(5-fluoropyrimidin-2-yl)-4-methylphenyl)-7-(pyridin-2-yl)-7-azabicyclo[2.2.1]heptane-2-carboxamide] yielded an IC50 [1] of 1 to 10 µM and an IC50 [2] of 4.9 µM.
`CC1(c2ccc(NC(=O)[C@@H]3CC3(F)F)cc2-c2ccccn2)CC1` [Example 133, (1S)-2,2-difluoro-N-[4-(1-methylcyclopropyl)-3-pyridin-2-ylphenyl]cyclopropane-1-carboxamide] gave an IC50 [1] greater than 10 µM and an IC50 [2] of 24 µM.
`O=C(Nc1ccc(C(F)(F)F)c(-c2ncc(F)cn2)c1)N1CCCCCC1` [Example 313, N-(3-(5-fluoropyrimidin-2-yl)-4-(trifluoromethyl)phenyl) azepane-1-carboxamide] was tested, and the IC50 [2] was 0.8 µM and the IC50 [3] was 0.0001 to 1 µM.
`Cc1ccc(NC(=O)N2C3CCCC2C3)cc1-c1ccccn1` [Example 17, N-(4-methyl-3-(pyridin-2-yl)phenyl)-6-azabicyclo[3.1.1]heptane-6-carboxamide] showed an IC50 [2] of 0.1 µM and an IC50 [3] of 0.0001 to 1 µM.
`Cc1c(-c2ncc(F)cn2)cc(NC(=O)N2C3CCCC2C3)c(F)c1F` [Example 250, N-[2,3-difluoro-5-(5-fluoropyrimidin-2-yl)-4-methylphenyl]-6-azabicyclo[3.1.1]heptane-6-carboxamide] was tested, and the IC50 [1] was 1 to 10 µM and the IC50 [2] was 1.5 µM.
`CCc1ccc(NC(=O)N2C3CCCC2C3)cc1-c1ccccn1` [Example 30, N-(4-ethyl-3-(pyridin-2-yl)phenyl)-6-azabicyclo[3.1.1]heptane-6-carboxamide] gave an IC50 [2] of 0.2 µM and an IC50 [3] of 0.0001 to 1 µM.
Compound `Cc1ccc(NC(=O)[C@H]2[C@@H]3CC(F)(F)C[C@@H]32)cc1-c1cccnn1` [Example 289, trans-3,3-difluoro-N-(4-methyl-3-pyridazin-3-ylphenyl)bicyclo[3.1.0] hexane-6-carboxamide] has an IC50 [1] greater than 10 µM and an IC50 [2] of 26 µM.
For `Cc1ccc(NC(=O)N2C3C[C@H](O)C[C@H]2C3)cc1-c1ccccn1` [Example 39, trans-3-hydroxy-N-(4-methyl-3-(pyridin-2-yl)phenyl)-6-azabicyclo[3.1.1]heptane-6-carboxamide], the IC50 [1] was 1 to 10 µM and the IC50 [2] was 3.8 µM.
With `Cc1ccc(NC(=O)C2CC3(CC3)C2)cc1-c1ccccn1` [Example 119, N-(4-methyl-3-pyridin-2-ylphenyl)spiro[2.3]hexane-5-carboxamide] the IC50 [1] was 1 to 10 µM and the IC50 [2] was 1.9 µM.
`N#CCc1ccc(NC(=O)N2C3CCCC2C3)cc1-c1ccccn1` [Example 19, N-(4-(cyanomethyl)-3-(pyridin-2-yl)phenyl)-6-azabicyclo[3.1.1]heptane-6-carboxamide] gave an IC50 [2] of 0.2 µM and an IC50 [3] of 0.0001 to 1 µM.
In the case of `Cc1ccc(NC(=O)N2C3CC2CN(C2CCC2)C3)cc1-c1ccccn1` [Example 6, 3-Cyclobutyl-N-(4-methyl-3-(pyridin-2-yl)phenyl)-3,6-diazabicyclo[3.1.1]heptane-6-carboxamide], the IC50 [1] is reported as 1 to 10 µM and the IC50 [2] is reported as 4.2 µM.
Compound `Cc1ccc(NC(=O)N2C3C[C@@H]2CC[C@@H]3C)cc1-c1ccccn1` (single isomer, unassigned) [Example 47, cis-2-methyl-N-(4-methyl-3-(pyridin-2-yl)phenyl)-6-azabicyclo[3.1.1]heptane-6-carboxamide] has an IC50 [2] of 0.06 µM and an IC50 [3] of 0.0001 to 1 µM.
`Cc1cc(F)c(NC(=O)N2C3C[C@@H](C4CC4)C[C@H]2C3)cc1-c1cccnn1` [Example 241, cis-3-cyclopropyl-N-(2-fluoro-4-methyl-5-pyridazin-3-ylphenyl)-6-azabicyclo[3.1.1]heptane-6-carboxamide] was tested, and the IC50 [2] was 0.09 µM and the IC50 [3] was 0.0001 to 1 µM.
Work on `Cc1c(Cl)cc(NC(=O)N2C3CCCC2C3)cc1-c1ccccn1` [Example 77, N-(3-chloro-4-methyl-5-(pyridin-2-yl)phenyl)-6-azabicyclo[3.1.1]heptane-6-carboxamide] yielded an IC50 [2] of 0.8 µM and an IC50 [3] of 0.0001 to 1 µM.
Work on `Cc1ccc(NC(=O)C2C3CCC2CC3)cc1-c1ccccn1` (stereo not drawn) [Example 73, N-(4-methyl-3-(pyridin-2-yl)phenyl)bicyclo[2.2.1]heptane-7-carboxamide] yielded an IC50 [2] of 0.09 µM and an IC50 [3] of 0.0001 to 1 µM.
`O=C(Nc1ccc(C(F)(F)F)c(-c2ccc(F)cn2)c1)[C@@H]1CC1(F)F` [Example 125, (1S)-2,2-difluoro-N-[3-(5-fluoropyridin-2-yl)-4-(trifluoromethyl)phenyl]cyclopro-pane-1-carboxamide] gave an IC50 [1] of 1 to 10 µM and an IC50 [2] of 3.5 µM.
`Cc1ccc(NC(=O)N2C3CCC2c2ccccc23)cc1-c1ccccn1` [Example 8, N-[4-Methyl-3-(2-pyridyl)phenyl]-11-azatricyclo[6.2.1.02,7]undeca-2,4,6-triene-11-carboxamide] gave an IC50 [2] of 0.06 µM and an IC50 [3] of 0.0001 to 1 µM.
